Our source for the Retention_time and Drug recovery values is ChEMBL document CHEMBL3525933 (Drug Metab Dispos, 2012).

In data set [1] the test system is Plasma. The data set can be described thus: Drug metabolism in Wistar rat plasma assessed as retention time by HPLC-DAD analysis. The format is ADME, cell-free.
Data set [2] relates to Plasma. The data set can be described thus: Drug recovery in Wistar rat plasma at 2000 ng/ml by HPLC-DAD analysis. The format is ADME, cell-free.

As for `O=c1c(-c2ccc(O)cc2)coc2cc(O[C@@H]3O[C@H](CO)[C@@H](O)[C@H](O)[C@H]3O)ccc12` [DAIDZIN], in the data set on Plasma [1], the Retention_time is reported as 9.5 min. This compound also gave a Drug recovery with Plasma [2] of 85.1%.
